Legend:
[1] = test system: Salmonella typhimurium; assay: Mutagenic activity in Salmonella Typhimurium TA97 assessed as number of his+ revertants at 100 ug/plate after 48 to 72 hrs by Ames test in absence of S9 fraction; type: toxicity, organism-based; details: salmonella enterica subsp. enterica serovar typhimurium
[2] = test system: Salmonella typhimurium; assay: Mutagenic activity in Salmonella Typhimurium TA97 assessed as number of his+ revertants at 100 ug/plate after 48 to 72 hrs by Ames test in presence of S9 fraction; type: toxicity, organism-based; details: salmonella enterica subsp. enterica serovar typhimurium
[3] = test system: Salmonella typhimurium; assay: Mutagenic activity in Salmonella Typhimurium TA97 assessed as number of his+ revertants at 500 ug/plate after 48 to 72 hrs by Ames test in absence of S9 fraction; type: toxicity, organism-based; details: salmonella enterica subsp. enterica serovar typhimurium
[4] = test system: Salmonella typhimurium; assay: Mutagenic activity in Salmonella Typhimurium TA97 assessed as number of his+ revertants at 500 ug/plate after 48 to 72 hrs by Ames test in presence of S9 fraction; type: toxicity, organism-based; details: salmonella enterica subsp. enterica serovar typhimurium
[5] = test system: Salmonella typhimurium; assay: Mutagenic activity in Salmonella Typhimurium TA97 assessed as number of his+ revertants at 1000 ug/plate after 48 to 72 hrs by Ames test in absence of S9 fraction; type: toxicity, organism-based; details: salmonella enterica subsp. enterica serovar typhimurium
[6] = test system: Salmonella typhimurium; assay: Mutagenic activity in Salmonella Typhimurium TA97 assessed as number of his+ revertants at 1000 ug/plate after 48 to 72 hrs by Ames test in presence of S9 fraction; type: toxicity, organism-based; details: salmonella enterica subsp. enterica serovar typhimurium
[7] = test system: Salmonella typhimurium; assay: Mutagenic activity in Salmonella Typhimurium TA98 assessed as number of his+ revertants at 100 ug/plate after 48 to 72 hrs by Ames test in absence of S9 fraction; type: toxicity, organism-based; details: salmonella enterica subsp. enterica serovar typhimurium
[8] = test system: Salmonella typhimurium; assay: Mutagenic activity in Salmonella Typhimurium TA98 assessed as number of his+ revertants at 100 ug/plate after 48 to 72 hrs by Ames test in presence of S9 fraction; type: toxicity, organism-based; details: salmonella enterica subsp. enterica serovar typhimurium
[9] = test system: Salmonella typhimurium; assay: Mutagenic activity in Salmonella Typhimurium TA98 assessed as number of his+ revertants at 500 ug/plate after 48 to 72 hrs by Ames test in absence of S9 fraction; type: toxicity, organism-based; details: salmonella enterica subsp. enterica serovar typhimurium
[10] = test system: Salmonella typhimurium; assay: Mutagenic activity in Salmonella Typhimurium TA98 assessed as number of his+ revertants at 500 ug/plate after 48 to 72 hrs by Ames test in presence of S9 fraction; type: toxicity, organism-based; details: salmonella enterica subsp. enterica serovar typhimurium
[11] = test system: Salmonella typhimurium; assay: Mutagenic activity in Salmonella Typhimurium TA98 assessed as number of his+ revertants at 1000 ug/plate after 48 to 72 hrs by Ames test in absence of S9 fraction; type: toxicity, organism-based; details: salmonella enterica subsp. enterica serovar typhimurium
[12] = test system: Salmonella typhimurium; assay: Mutagenic activity in Salmonella Typhimurium TA98 assessed as number of his+ revertants at 1000 ug/plate after 48 to 72 hrs by Ames test in presence of S9 fraction; type: toxicity, organism-based; details: salmonella enterica subsp. enterica serovar typhimurium
[13] = test system: Salmonella typhimurium; assay: Mutagenic activity in Salmonella Typhimurium TA100 assessed as number of his+ revertants at 100 ug/plate after 48 to 72 hrs by Ames test in absence of S9 fraction; type: toxicity, organism-based; details: salmonella enterica subsp. enterica serovar typhimurium
[14] = test system: Salmonella typhimurium; assay: Mutagenic activity in Salmonella Typhimurium TA100 assessed as number of his+ revertants at 100 ug/plate after 48 to 72 hrs by Ames test in presence of S9 fraction; type: toxicity, organism-based; details: salmonella enterica subsp. enterica serovar typhimurium
[15] = test system: Salmonella typhimurium; assay: Mutagenic activity in Salmonella Typhimurium TA100 assessed as number of his+ revertants at 500 ug/plate after 48 to 72 hrs by Ames test in absence of S9 fraction; type: toxicity, organism-based; details: salmonella enterica subsp. enterica serovar typhimurium
[16] = test system: Salmonella typhimurium; assay: Mutagenic activity in Salmonella Typhimurium TA100 assessed as number of his+ revertants at 500 ug/plate after 48 to 72 hrs by Ames test in presence of S9 fraction; type: toxicity, organism-based; details: salmonella enterica subsp. enterica serovar typhimurium
[17] = test system: Salmonella typhimurium; assay: Mutagenic activity in Salmonella Typhimurium TA100 assessed as number of his+ revertants at 1000 ug/plate after 48 to 72 hrs by Ames test in absence of S9 fraction; type: toxicity, organism-based; details: salmonella enterica subsp. enterica serovar typhimurium
[18] = test system: Salmonella typhimurium; assay: Mutagenic activity in Salmonella Typhimurium TA100 assessed as number of his+ revertants at 1000 ug/plate after 48 to 72 hrs by Ames test in presence of S9 fraction; type: toxicity, organism-based; details: salmonella enterica subsp. enterica serovar typhimurium
[19] = test system: Salmonella typhimurium; assay: Mutagenic activity in Salmonella Typhimurium TA102 assessed as number of his+ revertants at 100 ug/plate after 48 to 72 hrs by Ames test in absence of S9 fraction; type: toxicity, organism-based; details: salmonella enterica subsp. enterica serovar typhimurium
[20] = test system: Salmonella typhimurium; assay: Mutagenic activity in Salmonella Typhimurium TA102 assessed as number of his+ revertants at 100 ug/plate after 48 to 72 hrs by Ames test in presence of S9 fraction; type: toxicity, organism-based; details: salmonella enterica subsp. enterica serovar typhimurium
[21] = test system: Salmonella typhimurium; assay: Mutagenic activity in Salmonella Typhimurium TA102 assessed as number of his+ revertants at 500 ug/plate after 48 to 72 hrs by Ames test in absence of S9 fraction; type: toxicity, organism-based; details: salmonella enterica subsp. enterica serovar typhimurium
[22] = test system: Salmonella typhimurium; assay: Mutagenic activity in Salmonella Typhimurium TA102 assessed as number of his+ revertants at 500 ug/plate after 48 to 72 hrs by Ames test in presence of S9 fraction; type: toxicity, organism-based; details: salmonella enterica subsp. enterica serovar typhimurium
[23] = test system: Salmonella typhimurium; assay: Mutagenic activity in Salmonella Typhimurium TA102 assessed as number of his+ revertants at 1000 ug/plate after 48 to 72 hrs by Ames test in absence of S9 fraction; type: toxicity, organism-based; details: salmonella enterica subsp. enterica serovar typhimurium
[24] = test system: Salmonella typhimurium; assay: Mutagenic activity in Salmonella Typhimurium TA102 assessed as number of his+ revertants at 1000 ug/plate after 48 to 72 hrs by Ames test in presence of S9 fraction; type: toxicity, organism-based; details: salmonella enterica subsp. enterica serovar typhimurium
[25] = test system: L929; assay: Genotoxicity against mouse L929 cells assessed as number of micronuclei at 100 ug/ml; type: toxicity, cell-based
[26] = test system: Salmonella typhimurium; assay: Cytotoxicity against Salmonella Typhimurium TA97 assessed as reduction in his+ revertants number at 500 ug/plate after 48 to 72 hrs in absence of S9 fraction; type: functional, Salmonella enterica subsp. enterica serovar Typhimurium; set-up: scale not given: the % may be the effect or the level left
[27] = test system: Salmonella typhimurium; assay: Cytotoxicity against Salmonella Typhimurium TA98 assessed as reduction in his+ revertants number at 500 ug/plate after 48 to 72 hrs in absence of S9 fraction; type: functional, Salmonella enterica subsp. enterica serovar Typhimurium; set-up: scale not given: the % may be the effect or the level left
[28] = test system: Salmonella typhimurium; assay: Cytotoxicity against Salmonella Typhimurium TA100 assessed as reduction in his+ revertants number at 500 ug/plate after 48 to 72 hrs in absence of S9 fraction; type: functional, Salmonella enterica subsp. enterica serovar Typhimurium; set-up: scale not given: the % may be the effect or the level left
[29] = test system: Salmonella typhimurium; assay: Cytotoxicity against Salmonella Typhimurium TA102 assessed as reduction in his+ revertants number at 500 ug/plate after 48 to 72 hrs in absence of S9 fraction; type: functional, Salmonella enterica subsp. enterica serovar Typhimurium; set-up: scale not given: the % may be the effect or the level left
[30] = test system: Salmonella typhimurium; assay: Cytotoxicity against Salmonella Typhimurium TA97 assessed as reduction in his+ revertants number at 500 ug/plate after 48 to 72 hrs in presence of S9 fraction; type: functional, Salmonella enterica subsp. enterica serovar Typhimurium; set-up: scale not given: the % may be the effect or the level left
[31] = test system: Salmonella typhimurium; assay: Cytotoxicity against Salmonella Typhimurium TA98 assessed as reduction in his+ revertants number at 500 ug/plate after 48 to 72 hrs in presence of S9 fraction; type: functional, Salmonella enterica subsp. enterica serovar Typhimurium; set-up: scale not given: the % may be the effect or the level left
[32] = test system: Salmonella typhimurium; assay: Cytotoxicity against Salmonella Typhimurium TA100 assessed as reduction in his+ revertants number at 500 ug/plate after 48 to 72 hrs in presence of S9 fraction; type: functional, Salmonella enterica subsp. enterica serovar Typhimurium; set-up: scale not given: the % may be the effect or the level left
[33] = test system: Salmonella typhimurium; assay: Cytotoxicity against Salmonella Typhimurium TA102 assessed as reduction in his+ revertants number at 500 ug/plate after 48 to 72 hrs in presence of S9 fraction; type: functional, Salmonella enterica subsp. enterica serovar Typhimurium; set-up: scale not given: the % may be the effect or the level left
[34] = test system: L929; assay: Genotoxicity against mouse L929 cells assessed as number of micronuclei at 50 ug/ml; type: toxicity, cell-based
[35] = test system: Salmonella typhimurium; assay: Cytotoxicity against Salmonella Typhimurium TA102 assessed as reduction in his+ revertants after 48 to 72 hrs in absence of S9 fraction; type: functional, Salmonella enterica subsp. enterica serovar Typhimurium; set-up: scale not given: the % may be the effect or the level left
[36] = test system: Salmonella typhimurium; assay: Cytotoxicity against Salmonella Typhimurium TA102 assessed as reduction in his+ revertants after 48 to 72 hrs in presence of S9 fraction; type: functional, Salmonella enterica subsp. enterica serovar Typhimurium; set-up: scale not given: the % may be the effect or the level left
[37] = test system: Salmonella typhimurium; assay: Cytotoxicity against Salmonella Typhimurium TA102 assessed as growth inhibition oh his+ revertants after 48 to 72 hrs; type: functional, Salmonella enterica subsp. enterica serovar Typhimurium; set-up: scale not given: the % may be the effect or the level left
[38] = test system: Salmonella typhimurium; assay: Cytotoxicity against Salmonella Typhimurium TA97 assessed as growth inhibition after 48 to 72 hrs; type: functional, Salmonella enterica subsp. enterica serovar Typhimurium; set-up: scale not given: the % may be the effect or the level left
[39] = test system: Salmonella typhimurium; assay: Cytotoxicity against Salmonella Typhimurium TA100 assessed as growth inhibition after 48 to 72 hrs; type: functional, Salmonella enterica subsp. enterica serovar Typhimurium; set-up: scale not given: the % may be the effect or the level left
[40] = test system: Salmonella typhimurium; assay: Cytotoxicity against Salmonella Typhimurium TA97 assessed as reduction in his+ revertants after 48 to 72 hrs in presence of S9 fraction; type: functional, Salmonella enterica subsp. enterica serovar Typhimurium; set-up: scale not given: the % may be the effect or the level left
[41] = test system: Salmonella typhimurium; assay: Cytotoxicity against Salmonella Typhimurium TA98 assessed as reduction in his+ revertants after 48 to 72 hrs in presence of S9 fraction; type: functional, Salmonella enterica subsp. enterica serovar Typhimurium; set-up: scale not given: the % may be the effect or the level left
[42] = test system: Salmonella typhimurium; assay: Cytotoxicity against Salmonella Typhimurium TA100 assessed as reduction in his+ revertants after 48 to 72 hrs in presence of S9 fraction; type: functional, Salmonella enterica subsp. enterica serovar Typhimurium; set-up: scale not given: the % may be the effect or the level left

Structure (SMILES) | Activity [1] | Activity [2] | Activity [3] | Activity [4] | Activity [5] | Activity [6] | Activity [7] | Activity [8] | Activity [9] | Activity [10] | Activity [11] | Activity [12] | Activity [13] | Activity [14] | Activity [15] | Activity [16] | Activity [17] | Activity [18] | Activity [19] | Activity [20] | other results
C/C=C/c1ccc(OC)c(OC)c1OC | 151 | 212 | 151 | 200 | 131 | 172 | 27 | 44 | 22 | 43 | 20 | 26 | 108 | 167 | 116 | 160 | 100 | 132 | 236 | 343 | Activity [21]: 203; Activity [22]: 335; Activity [23]: 160; Activity [24]: 233; Activity [25]: 3.79%; Activity [26]: 23%; Activity [27]: 23%; Activity [28]: 23%; Activity [29]: 23%; Activity [30]: 9%; Activity [31]: 9%; Activity [32]: 9%; Activity [33]: 9%
C/C=C/c1c(OC)cc(OC)cc1OC | 163 | 175 | 190 | 200 | 223 | 187 | 32 | 24 | 32 | 18 | 26 | 22 | 138 | 153 | 134 | 156 | 148 | 126 | 275 | 333 | Activity [21]: 298; Activity [22]: 328; Activity [23]: 195; Activity [24]: 218; Activity [34]: 3.44%; Activity [35]: 28%; Activity [36]: 27%; Activity [37]: 28%
C/C=C/c1cc(OC)c(OC)c(OC)c1 | 109 | 194 | 88 | 164 | 73 | 155 | 30 | 30 | 24 | 18 | 32 | 15 | 109 | 119 | 88 | 108 | 73 | 87 | 241 | 281 | Activity [21]: 155; Activity [22]: 236; Activity [24]: 165; Activity [25]: 1.74%; Activity [36]: 22%; Activity [38]: 59%; Activity [39]: 44%; Activity [40]: 22%; Activity [41]: 22%; Activity [42]: 22%
C/C=C/c1c(OC)ccc(OC)c1OC.CC(C)CCC[C@@H](C)[C@H]1CC[C@H]2[C@@H]3CC=C4C[C@@H](O)CC[C@]4(C)[C@H]3CC[C@]12C | 153 | 191 | 137 | 126 | 141 | 171 | 26 | 35 | 26 | 27 | 23 | 42 | 112 | 188 | 104 | 186 | 96 | 162 | 270 | 270 | Activity [21]: 159; Activity [22]: 162; Activity [23]: 90; Activity [24]: 49; Activity [25]: 1.61%; Activity [35]: 43%; Activity [36]: 46%; Activity [37]: 28%
